Experimental data from US20230131427A1, “FUNGICIDAL COMPOSITIONS” (SYNGENTA CROP PROTECTION AG, priority 2020, published 2023).
Several values for one entry are separate records, joined by “and”; a condition that tells them apart may be missing. Identical values can stand only once. Like-named read-outs stand apart in the source and are kept apart here.

Experiments:
[1] = test system: Puccinia recondita f. sp. tritici; experiment: Puccinia recondita f. sp. tritici / wheat / leaf disc preventative (brown rust); assay type: in vivo; conditions: foliar, vs untreated control
Description: (§1) Leaf disks or leaf segments of various plant species are cut from plants grown in a greenhouse. The cut leaf disks or segments are placed in multiwell plates (24-well format) onto water agar. The leaf disks are sprayed with a test solution before (preventative) or after (curative) inoculation. Compounds to be tested are prepared as DMSO solutions (max. 10 mg/mL) which are diluted to the appropriate concentration with 0.025% Tween20 just before spraying. The inoculated leaf disks or segments are incubated under defined conditions (temperature, relative humidity, light, etc.) according to the respective test system. A single evaluation of disease level is carried out 3 to 14 days after inoculation, depending on the pathosystem. Percent disease control relative to the untreated check leaf disks or segments is then calculated.
Wheat leaf segments cv. Kanzler are placed on agar in multiwell plates (24-well format) and sprayed with the formulated test compound diluted in water. The leaf disks are inoculated with a spore suspension of the fungus 1 day after application. The inoculated leaf segments are incubated at 19° C. and 75% rh under a light regime of 12 h light/12 h darkness in a climate cabinet and the activity of a compound is assessed as percent disease control compared to untreated when an appropriate level of disease damage appears in untreated check leaf segments (7-9 days after application).

Septoria glycines = experiment: Example B2: mixtures, preventative activity against Septoria glycines (brown spot), liquid culture; assay type: cell-based; conditions: Septoria glycines, component A alone
In short: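 Conidia from fresh culture mixed into potato dextrose broth and added to test compounds in DMSO in 96-well plates. Growth inhibition scored 100-0 (100 = no growth; 0 = well covered by mycelium); synergy of mixtures judged by Colby expected-action (O-E).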

Phakopsora pachyrhizi [2] = experiment: Example B5: preventative activity against Phakopsora pachyrhizi (soybean rust), whole soybean plants sprayed, leaf disks inoculated; assay type: in vivo
In short: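 Soybean plants sprayed 4 weeks after planting at rates in g a.i./ha; leaf disks from the first trifoliate cut 1 day later and inoculated with rust, five repetitions per rate. Scored 11–14 days post-inoculation relative to untreated infested check (100 = no disease, 0 = heavy infestation).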

[3] = test system: Glomerella lagenarium syn. Colletotrichum lagenarium; experiment: Example B1: mixtures, preventative activity against Glomerella lagenarium syn. Colletotrichum lagenarium, liquid culture; assay type: cell-based; conditions: Colletotrichum orbiculare; component A alone, 0.03 ppm
In short: (§2)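 Fungal conidia mixed into potato dextrose broth were added to test compounds or mixtures in DMSO in microtiter wells. Fungicidal activity was scored on a 100-0 scale (100 = no disease growth; 0 = well fully covered by mycelium). Synergy was assessed by the Colby formula, comparing observed (O) with expected (E) action.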

Septoria tritici = experiment: Example B3: mixtures, preventative activity against Septoria tritici (leaf blotch), liquid culture; assay type: cell-based; conditions: component A alone; for inhibition at 0.003125 ppm / inhibition at 0.00625 ppm / inhibition at 0.03 ppm: Zymoseptoria tritici; for inhibition at 0.03 ppm: read-out: Activity (%) A
In short: as §2

Phakopsora pachyrhizi [4] = experiment: Phakopsora pachyrhizi / soybean / leaf disc preventative (Asian soybean rust); assay type: in vivo; conditions: foliar, 288 h, vs untreated control
Description: as §1
Soybean leaf disks are placed on agar in multiwell plates (24-well format) and sprayed with test solutions. After drying, the leaf disks are inoculated with a spore suspension of the fungus. After appropriate incubation the activity of a compound is assessed approx.12 dpi (days after inoculation) as preventive fungicidal activity.

[5] = test system: Glomerella lagenarium (Colletotrichum lagenarium); experiment: Glomerella lagenarium (Colletotrichum lagenarium) liquid culture / cucumber / preventative (anthracnose); assay type: cell-based; conditions: Colletotrichum orbiculare, vs untreated control
Description: Mycelia fragments or conidia suspensions of a fungus prepared either freshly from liquid cultures of the fungus or from cryogenic storage, are directly mixed into nutrient broth. DMSO solutions of the test compound (max. 10 mg/mL) are diluted with 0.025% Tween20 by a factor of 50 and 10 μl of this solution is pipetted into a microtiter plate (96-well format). The nutrient broth containing the fungal spores/mycelia fragments is then added to give an end concentration of the tested compound. The test plates are incubated in the dark at 24° C. and 96% relative humidity. The inhibition of fungal growth is determined photometrically after 2 to 7 days, depending on the pathosystem, and percent antifungal activity relative to the untreated check is calculated.
Conidia of the fungus from cryogenic storage are directly mixed into nutrient broth (PDB potato dextrose broth). After placing a (DMSO) solution of test compound into a microtiter plate (96-well format), the nutrient broth containing the fungal spores is added.

[6] = test system: Mycosphaerella arachidis syn. Cercospora arachidicola; experiment: Example B4: mixtures, preventative activity against Mycosphaerella arachidis syn. Cercospora arachidicola (brown leaf spot of peanut), liquid culture; assay type: cell-based; conditions: Mycosphaerella arachidis, component A alone
Excerpt: This occurs whenever the action of an active ingredient combination is greater than the sum of the actions of the individual components. The action to be expected E for a given active ingredient combination obeys the so-called COLBY formula and can be calculated as follows (COLBY, S. R. “Calculating synergistic and antagonistic responses of herbicide combination”. Weeds, Vol. 15, pages 20-22; 1967):
If the action actually observed (O) is greater than the expected action (E), then the action of the combination is super-additive, i.e. there is a synergistic effect. In mathematical terms, synergism corresponds to a positive value for the difference of (O-E). In the case of purely complementary addition of activities (expected activity), said difference (O-E) is zero. A negative value of said difference (O-E) signals a loss of activity compared to the expected activity.
Conidia of the fungus from cryogenic storage were directly mixed into nutrient broth (PDB potato dextrose broth). A DMSO solution of the test compounds was placed into a microtiter plate (96-well format) and the nutrient broth containing the fungal spores was added to it.
Cercospora arachidicola (Brown leaf spot of peanut). Fungicidal activity was evaluated on a 100-0 scale (100=no disease growth; 0=well completely covered by mycelium).

[7] = test system: Puccinia recondita f. sp. tritici; experiment: Puccinia recondita f. sp. tritici / wheat / leaf disc curative (brown rust); assay type: in vivo; conditions: foliar, vs untreated control
Description: Leaf disks or leaf segments of various plant species are cut from plants grown in a greenhouse. The cut leaf disks or segments are placed in multiwell plates (24-well format) onto water agar. The leaf disks are sprayed with a test solution before (preventative) or after (curative) inoculation. […] The inoculated leaf disks or segments are incubated under defined conditions (temperature, relative humidity, light, etc.) according to the respective test system. […] Percent disease control relative to the untreated check leaf disks or segments is then calculated. Wheat leaf segments cv. Kanzler are placed on agar in multiwell plates (24-well format). The leaf segments are inoculated with a spore suspension of the fungus. […] The formulated test compound diluted in water is applied 1 day after inoculation.

[8] = Phakopsora pachyrhizi, foliar, applied alone, 9 g/ha, read-out: Observed Activity (% of untreated) against Phakopsora pachyrhizi

SMILES | pest or weed control at 200 ppm [1] [%] | melting point [°C] | inhibition at 9 g/ha (Phakopsora pachyrhizi [2]; [8]) [%] | Observed Activity (% of untreated) against Phakopsora pachyrhizi (Phakopsora pachyrhizi [2]; applied alone, 2.25 g/ha) | Observed Activity (% of untreated) against Phakopsora pachyrhizi (Phakopsora pachyrhizi [2]; applied alone, 4.5 g/ha) | inhibition at 0.03 ppm [3] [%] | inhibition at 0.00625 ppm (Septoria tritici; 0.00625 ppm, 100-0 scale) [%] | pest or weed control at 67 ppm (Phakopsora pachyrhizi [4]) [%] | inhibition of growth at 6.7 ppm [5] [%] | inhibition at 0.003125 ppm [6] [%] | inhibition at 0.00625 ppm [6] [%] | pest or weed control at 200 ppm [7] [%] | inhibition at 0.003125 ppm (Septoria glycines; 100-0 scale) [%] | inhibition at 0.00625 ppm (Septoria glycines; 100-0 scale) [%] | other results
CCCc1ccn(-c2ccc(C)c(O/C(=C\OC)C(=O)OC)c2)n1 [X.01, methyl (Z)-3-methoxy-2-[2-methyl-5-(3-propylpyrazol-1-yl)phenoxy]prop-2-enoate] | ≥ 80 | 91 to 94 | 85 | 24% and 31% | 69% and 64% | 70 | 50 | ≥ 80 | ≥ 80 | 0 | 20 | ≥ 80 |  |  | inhibition at 0.003125 ppm (Septoria glycines): 20%; inhibition at 0.00625 ppm (Septoria glycines): 70%; inhibition at 9 g/ha (Phakopsora pachyrhizi [2]; Phakopsora pachyrhizi, foliar, active ingredient alone, 9 g/ha, read-out: Observed Activity (%) (% of untreated)): 78%; inhibition at 18 g/ha (Phakopsora pachyrhizi [2]; Phakopsora pachyrhizi, foliar, active ingredient alone, 18 g/ha, read-out: Observed Activity (%) (% of untreated)): 85%; Observed Activity (%) (% of untreated) (Phakopsora pachyrhizi [2]; active ingredient alone, 4.5 g/ha): 61% and 87% and 82% and 69%; Observed Activity (%) (% of untreated) (Phakopsora pachyrhizi [2]; active ingredient alone, 9 g/ha): 94% and 90%; Observed Activity (%) (% of untreated) (Phakopsora pachyrhizi [2]; active ingredient alone, 18 g/ha): 97%; inhibition at 0.003125 ppm (Septoria tritici; 0.003125 ppm, 100-0 scale): 20%; Activity (%) A (Septoria tritici; 0.00625 ppm, 100-0 scale): 70%
CO/C=C(\Oc1cc(-n2ccc(C(C)C)n2)ccc1C)C(=O)OC [X.06, methyl (Z)-2-[5-(3-isopropylpyrazol-1-yl)-2-methyl-phenoxy]-3-methoxy-prop-2-enoate] | ≥ 80 | 88 to 91 | 97 | 13% and 9% | 61% and 48% and 73% | 20 | 50 | ≥ 80 | ≥ 80 | 20 | 50 | ≥ 80 | 0 | 50 | inhibition at 0.025 ppm (Septoria glycines; 0.025 ppm, 100-0 scale): 90%; inhibition at 2.25 g/ha (Phakopsora pachyrhizi [2]; Phakopsora pachyrhizi, foliar, applied alone, 2.25 g/ha, read-out: Observed Activity (% of untreated) against Phakopsora pachyrhizi): 10%; inhibition at 18 g/ha (Phakopsora pachyrhizi [2]; Phakopsora pachyrhizi, foliar, applied alone, 18 g/ha, read-out: Observed Activity (% of untreated) against Phakopsora pachyrhizi): 97%; Observed Activity (%) (% of untreated) against Phakopsora pachyrhizi (Phakopsora pachyrhizi [2]; applied alone, 2.25 g/ha): 71%; Observed Activity (%) (% of untreated) against Phakopsora pachyrhizi (Phakopsora pachyrhizi [2]; applied alone, 4.5 g/ha): 94%; Observed Activity (% of untreated) against Phakopsora pachyrhizi (Phakopsora pachyrhizi [2]; applied alone, 9 g/ha): 81% and 93%; inhibition at 0.03 ppm (Septoria tritici; 100-0 scale): 70%; Activity (%) A (Septoria tritici; 0.003125 ppm, 100-0 scale): 0%
CO/C=C(\Oc1cc(-n2ncc(C(F)(F)F)n2)ccc1C)C(=O)OC [X.10, methyl (Z)-3-methoxy-2-[2-methyl-5-[4-(trifluoromethyl)triazol-2-yl]phenoxy]prop-2-enoate] | ≥ 80 | 107 to 109 |  |  |  | 0 |  | ≥ 80 | ≥ 80 | 70 | 90 | ≥ 80 | 70 | 90 | inhibition at 0.03 ppm (Septoria glycines; 0.03 ppm, 100-0 scale, read-out: Activity (%) A): 0%; inhibition at 0.003125 ppm (Septoria tritici; 72 h, 0.003125 ppm): 70%; inhibition at 0.00625 ppm (Septoria tritici; 72 h, 0.00625 ppm): 90%; inhibition at 0.03 ppm (Septoria tritici; 72 h, 72 hrs): 0%; inhibition at 0.03 ppm ([6]; 0.03 ppm): 0%
